Results: patent publication EP0314302A2, “Herbicidal o-carbomethoxy-sulfonylureas” (E.I. DU PONT DE NEMOURS AND COMPANY, priority 1987, dated 1989)

How the values were obtained:
Smooth crabgrass = test: Test 11 windowsill flats, postemergence; format: in vivo, Digitaria ischaemum; details: Postemergence 32 g/ha, 0.25% X-77 surfactant, scale 0-100
Experimental: (§1) Budded citrus seedlings were planted in 30-liter plastic pots which were also seeded with sandbur, guineagrass, narrowleaf panicum, common ragweed, yellow nutsedge, purple nutsedge and bindweed. Compound I was applied preemergence and postemergence to the weeds. Treatments were sprayed to simulate the trunk-to-trunk herbicide application method used in some citrus groves. The compound was also applied postemergence to weeds grown in windowsill flats. The flats were filled with planting medium and seeded with morningglory (Ipomoea spp.). purple nutsedge (Cyperus rotundus), pigweed (Amaranthus spp.), bindweed (Convolvulus spp.), narrowleaf panicum (Panicum maximum), common ragweed (Ambrosia artemisiifolia), sandbur (Cenchrus echinatus), itchgrass (Rottboellia exaltata), johnsongrass (Sorghum halepense), guineagrass (Panicum maximum), smooth crabgrass (Digitaria ischaemum), broadleaf signalgrass (Brachiaria platyphylla), bermudagrass (Cynodon dactylon), goosegrass (Eleusine indica), large crabgrass (Digitaria sanguinalis) and yellow nutsedge (Cyperus esculentus).
(§2) The compound was formulated and sprayed with 0.25% X-77 surfactant in water. Plants were visually rated 21 and 29 days after treatment and compared with appropriate controls. Injury ratings were based on the scale of 0 to 100, where 0 indicates no effect, 20 indicates minimum effect and 100 indicates complete control. […]

Bromus tectorum = test: Test 1 greenhouse, preemergence; format: in vivo; details: 21 days, scale 0-100
Experimental: (§3) Seeds of Bromus tectorum, Kochia scoparia, Salsoa kali, Avena fatua, Convolvulus arvensis, Secale cereale, Setaria viridis and Triticum aestivum were placed in 26-cm plastic pans containing a pasteurized sandy loam soil (pH 6.5, 1% organic matter). Plantings were maintained in the greenhouse for 18-28 days at which time the postemergence treatments were applied using a nonphytotoxic solvent as the carrier for the herbicide. The preemergence segment of the test was seeded immediately before herbicide application using Bromus tectorum, Kochia scoparia, Polygonum convolvulus, Salsoa kali, Avena fatua, Convolvulus arvensis, Secale cereale, Setaria viridis, Aegilops cylindrica, Amaranthus retroflexus, Chenopodium album, Hordeum vulgare, Triticum aestivum, Sorghum bicolor, and Zea mays. All treatments were maintained in the greenhouse for an additional 21 days at which time visual assessment of weed control was determined using a scale of 0 to 100 for each species where 0 represented no control and 100 represented complete control.

Chenopodium album = test: Test 1 greenhouse, preemergence; format: in vivo; details: 21 days, scale 0-100
Experimental: as §3

Avena fatua = test: Test 1 greenhouse, preemergence; format: in vivo; details: 21 days, scale 0-100
Experimental: as §3

Zea mays = test: Test 1 greenhouse, preemergence; format: in vivo; details: 21 days, scale 0-100
Experimental: as §3

Amaranthus retroflexus = test: Test 1 greenhouse, preemergence; format: in vivo; details: 21 days, scale 0-100
Experimental: as §3

Narrowleaf panicum = test: Test 11 citrus pots, postemergence to the weeds; format: in vivo, Panicum maximum; details: Postemergence 32 g/ha, 0.25% X-77 surfactant, scale 0-100
Experimental: as §1, §2

Guineagrass = test: Test 11 citrus pots, postemergence to the weeds; format: in vivo, Panicum maximum; details: Postemergence 32 g/ha, 0.25% X-77 surfactant, scale 0-100
Experimental: as §1, §2

Grapes = test: Test 10 postemergence safety to crops and weed control; format: in vivo, Macedine grapes; details: scale 0-100
Experimental: (§4) The object of these tests was to evaluate the compound of this invention for postemergence safety to crops and weed control. Seedling and budded Macedine grapes were grown in 11.4-cm pots. Flax, green foxtail (Setaria viridis), "Morex" barley, wild oats (Avena fatua), "Era" wheat, annual ryegrass (Lolium multiflorum), wild radish (Raphanus raphanistrum), rape, sunflower, chickweed (Stellaria media) and wild buckwheat (Polygonum convolvulus) were seeded in windowsill pots.
(§5) The plants were sprayed postemergence with Compound I in a non-phytotoxic solvent. Plants were visually rated 15 and 27 days after treatment (DAT). Injury and weed control ratings were based on the scale of 0 to 100 where 0 = no effect, 20 minimal control and 100 = complete control.

Chickweed = test: as above; format: in vivo, Stellaria media; details: 16 g/ha, scale 0-100
Experimental: as §4, §5

Goldenrod = test: Test 4 plantation crop weeds, postemergence; format: in vivo, Solidago spp; details: Table 6, profusely branching, scale 0-100
Text: The object of this test was to evaluate the efficacy of the compound of this invention on weeds that infest some plantation crops at different growth stages of the weeds. Asystasia intrusa, Mikania cordata, goldenrod Solidago spp, Boston fern Nephrolepis exalata, and lalang Imparata cylindrica were planted in 15-cm plastic pots. Plants were sprayed postemergence with Compound I in a non-phytotoxic solvent. The Asystasia plants ranged in growth from 4 leaves to 9 leaves and very branched, Mikania had 6 leaves to vining, the goldenrod was branching and the Boston fern was growing vigorously. The degree of weed control was visually rated 20 to 24 days after treatment (DAT). Control ratings are based on the scale of 0 to 100 where 0 = no effect, 20 = minimal control and 100 = complete control. Variations in the results of the tests could be due to the fact that the tests were run at different times of the year or due to the stage of growth of the weeds.

coffee = test: Test 6 effect of surfactants, postemergence; format: in vivo, Coffea spp; details: addition of a surfactant
Text: The object of this test was to evaluate the effect of surfactants and plant growth stage on the efficacy of the compound of this invention. Plastic windowsill pots were filled with planting medium and seeded with yellow nutsedge (Cyperus esculentus), large crabgrass (Digitaria sanguinalis), goosegrass (Elsusine indica), bermudagrass (Cynodon dactylon), broadleaf signalgrass (Brachiara platyphalla), smooth crabgrass (Digitaria ischaemum), guinea grass (Panicum maximum) and johnsongrass (Sorghum halapense). Coffee (Coffea spp) plants with 2 to 4 branches were included in one test.
Plants were treated postemergence with Compound I formulated with different surfactants or a non-phytotoxic carrier made up of acetone-humectant-water-surfactant.

Structure (SMILES): COC(=O)c1cccnc1S(=O)(=O)NC(=O)Nc1nc(OC)cc(OC)n1 [Compound I, 2-[[(4,6-dimethoxypyrimidin-2-yl)aminocarbonyl]aminosulfonyl]-3-pyridinecarboxylic acid, methyl ester]
- Injury ratings (Smooth crabgrass): 100
- visual assessment of weed control (Bromus tectorum; 4 g/ha): 50
- visual assessment of weed control (Bromus tectorum; 8 g/ha): 70
- visual assessment of weed control (Bromus tectorum; 16 g/ha): 80
- visual assessment of weed control (Bromus tectorum; 32 g/ha): 90
- visual assessment of weed control (Bromus tectorum; 64 g/ha): 90
- visual assessment of weed control (Bromus tectorum; 125 g/ha): 100
- visual assessment of weed control (Chenopodium album; 4 g/ha): 60
- visual assessment of weed control (Chenopodium album; 8 g/ha): 90
- visual assessment of weed control (Chenopodium album; 16 g/ha): 90
- visual assessment of weed control (Chenopodium album; 32 g/ha): 100
- visual assessment of weed control (Chenopodium album; 64 g/ha): 100
- visual assessment of weed control (Chenopodium album; 125 g/ha): 100
- visual assessment of weed control (Avena fatua; 4 g/ha): 0
- visual assessment of weed control (Avena fatua; 8 g/ha): 40
- visual assessment of weed control (Avena fatua; 16 g/ha): 50
- visual assessment of weed control (Avena fatua; 32 g/ha): 60
- visual assessment of weed control (Avena fatua; 64 g/ha): 90
- visual assessment of weed control (Avena fatua; 125 g/ha): 100
- visual assessment of weed control (Zea mays; 4 g/ha): 40
- visual assessment of weed control (Zea mays; 8 g/ha): 50
- visual assessment of weed control (Zea mays; 16 g/ha): 90
- visual assessment of weed control (Zea mays; 32 g/ha): 90
- visual assessment of weed control (Zea mays; 64 g/ha): 90
- visual assessment of weed control (Zea mays; 125 g/ha): 100
- visual assessment of weed control (Amaranthus retroflexus; 4 g/ha): 70
- visual assessment of weed control (Amaranthus retroflexus; 8 g/ha): 90
- visual assessment of weed control (Amaranthus retroflexus; 16 g/ha): 90
- visual assessment of weed control (Amaranthus retroflexus; 32 g/ha): 100
- visual assessment of weed control (Amaranthus retroflexus; 64 g/ha): 100
- visual assessment of weed control (Amaranthus retroflexus; 125 g/ha): 100
- Injury ratings (Narrowleaf panicum): 90
- Injury ratings (Guineagrass): 100
- Plant Injury Rating 27 DAT (Grapes; Budded grapes, 1 g/ha): 0
- Plant Injury Rating 27 DAT (Grapes; Budded grapes, 2 g/ha): 0
- Plant Injury Rating 27 DAT (Grapes; Budded grapes, 4 g/ha): 0
- Plant Injury Rating 27 DAT (Grapes; Budded grapes, 8 g/ha): 0
- Plant Injury Rating 27 DAT (Grapes; Budded grapes, 16 g/ha): 10
- Plant Injury Rating 27 DAT (Grapes; Budded grapes, 32 g/ha): 10
- Plant Injury Rating 27 DAT (Grapes; Seedling grapes, 1 g/ha): 0
- Plant Injury Rating 27 DAT (Grapes; Seedling grapes, 2 g/ha): 0
- Plant Injury Rating 27 DAT (Grapes; Seedling grapes, 4 g/ha): 0
- Plant Injury Rating 27 DAT (Grapes; Seedling grapes, 8 g/ha): 10
- Plant Injury Rating 27 DAT (Grapes; Seedling grapes, 16 g/ha): 20
- Plant Injury Rating 27 DAT (Grapes; Seedling grapes, 32 g/ha): 20
- Plant Injury Rating 15 DAT (Chickweed): 100
- Control Rating 20 DAT (Goldenrod; 16 g/ha): 30
- Control Rating 20 DAT (Goldenrod; 32 g/ha): 30
- safety to coffee (coffee): maintaining safety to coffee
